Assay [1] deals with full-length human PLD1 (Homo sapiens (Human), UniProt Q13393). The assay can be described thus: Evaluation of human PLD1 enzyme inhibitory activity (Amplex Red / choline oxidase fluorescence). It is filed as biochemical. Conditions: full-length human PLD1 enzyme; read-out: PLD1 IC50. The essentials: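 Fluorescence read-out couples choline to Amplex Red via choline oxidase and peroxidase after a 60 min room-temperature reaction. Enzyme: FLAG-tagged full-length human PLD1 from Expi293F cells, anti-FLAG purified; substrate diheptanoyl phosphatidylcholine; HEPES pH 7.5 assay buffer with 0.01% NP-40, 0.1% BSA, 5% DMSO final.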
Chain of full-length human PLD1 (Q13393 other isoform, or with tags, fused parts or gaps): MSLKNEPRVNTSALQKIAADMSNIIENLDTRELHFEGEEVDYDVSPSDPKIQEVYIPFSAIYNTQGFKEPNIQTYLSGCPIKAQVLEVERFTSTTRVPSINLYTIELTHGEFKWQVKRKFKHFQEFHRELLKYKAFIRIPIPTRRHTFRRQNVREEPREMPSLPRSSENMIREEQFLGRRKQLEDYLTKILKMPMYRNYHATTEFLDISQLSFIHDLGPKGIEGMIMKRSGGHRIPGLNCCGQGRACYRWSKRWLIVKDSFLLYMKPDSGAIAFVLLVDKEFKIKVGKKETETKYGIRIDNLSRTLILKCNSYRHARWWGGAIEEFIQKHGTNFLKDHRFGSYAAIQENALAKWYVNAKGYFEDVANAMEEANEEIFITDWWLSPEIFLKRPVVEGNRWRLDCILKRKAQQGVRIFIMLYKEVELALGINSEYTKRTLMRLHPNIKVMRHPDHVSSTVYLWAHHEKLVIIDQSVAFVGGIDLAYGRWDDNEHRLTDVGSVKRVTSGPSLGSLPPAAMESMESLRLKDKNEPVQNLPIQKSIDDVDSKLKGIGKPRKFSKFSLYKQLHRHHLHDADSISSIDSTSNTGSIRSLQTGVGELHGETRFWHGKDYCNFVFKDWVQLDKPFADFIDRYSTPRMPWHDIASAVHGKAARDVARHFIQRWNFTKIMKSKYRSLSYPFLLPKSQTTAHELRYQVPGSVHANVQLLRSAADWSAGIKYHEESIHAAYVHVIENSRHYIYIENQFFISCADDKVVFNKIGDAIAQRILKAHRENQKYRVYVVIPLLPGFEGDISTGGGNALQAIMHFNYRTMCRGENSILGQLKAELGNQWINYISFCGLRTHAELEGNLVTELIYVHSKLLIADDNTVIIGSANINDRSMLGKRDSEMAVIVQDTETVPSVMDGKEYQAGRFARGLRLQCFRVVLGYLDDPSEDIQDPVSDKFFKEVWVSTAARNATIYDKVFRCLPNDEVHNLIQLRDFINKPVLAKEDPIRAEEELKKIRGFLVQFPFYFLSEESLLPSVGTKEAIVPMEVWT

The target of assay [2] is full-length human PLD2 (Homo sapiens (Human), UniProt O14939). The experiment in a line: Evaluation of human PLD2 enzyme inhibitory activity (Amplex Red / choline oxidase fluorescence). The settings on record: full-length human PLD2 enzyme; read-out: PLD2 IC50. Format: biochemical. In short, it runs like this: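 Released choline was read by Amplex Red fluorescence coupled to choline oxidase and HRP after a 60 min room-temperature reaction. Substrate was diheptanoyl phosphatidylcholine, added as a 6 mmol/L solution, and enzyme was FLAG-tagged full-length human PLD2 from Expi293F, added as a 6 nmol/L solution. Buffer was 50 mM HEPES pH 7.5 with 5% final DMSO.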
Chain of full-length human PLD2 (O14939 whole entry): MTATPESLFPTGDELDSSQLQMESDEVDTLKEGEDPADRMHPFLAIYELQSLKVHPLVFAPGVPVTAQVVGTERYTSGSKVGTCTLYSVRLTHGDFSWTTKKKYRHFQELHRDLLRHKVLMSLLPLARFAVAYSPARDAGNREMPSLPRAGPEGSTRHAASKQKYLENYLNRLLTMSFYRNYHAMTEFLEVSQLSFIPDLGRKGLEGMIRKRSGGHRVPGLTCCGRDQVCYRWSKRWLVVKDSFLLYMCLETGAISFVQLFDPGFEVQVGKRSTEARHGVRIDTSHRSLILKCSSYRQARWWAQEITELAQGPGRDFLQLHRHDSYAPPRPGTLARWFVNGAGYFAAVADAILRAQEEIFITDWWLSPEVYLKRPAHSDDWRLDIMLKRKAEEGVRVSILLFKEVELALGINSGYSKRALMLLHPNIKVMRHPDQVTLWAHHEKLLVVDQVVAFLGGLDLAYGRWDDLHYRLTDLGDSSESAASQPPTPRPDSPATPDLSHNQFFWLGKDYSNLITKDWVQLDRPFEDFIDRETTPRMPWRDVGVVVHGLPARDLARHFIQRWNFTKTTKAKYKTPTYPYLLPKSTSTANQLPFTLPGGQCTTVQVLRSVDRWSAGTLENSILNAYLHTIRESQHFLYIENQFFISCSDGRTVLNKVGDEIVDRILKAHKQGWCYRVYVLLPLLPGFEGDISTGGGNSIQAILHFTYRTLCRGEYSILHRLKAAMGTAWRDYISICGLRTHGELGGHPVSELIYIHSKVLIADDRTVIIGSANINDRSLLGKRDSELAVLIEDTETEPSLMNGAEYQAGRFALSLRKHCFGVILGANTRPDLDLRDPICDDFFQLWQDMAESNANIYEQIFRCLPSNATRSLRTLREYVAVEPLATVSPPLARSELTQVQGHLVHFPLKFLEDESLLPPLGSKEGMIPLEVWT

Molecules are shown by their SMILES.

One may read the IC50 as the point on the concentration scale where inhibition reaches its midpoint.

In the case of `CNC(=O)C(=O)N[C@@H](C)C[C@H]1CC[C@]2(CC1)OC(=O)NN=C2c1cc(C(=O)N2CC(F)(F)C2)ccc1Br` [Example 2-057], the figures for the 50% inhibitory concentration (IC50) in assay [1] and in assay [2] were 18 nM and under 10 nM, respectively.

`CNC(=O)C(=O)N[C@@H](C)CN1CCC2(CC1)OC(=O)NN=C2c1cc(C(=O)OC)ccc1Br` [Example 2-033]: the concentration for half-maximal inhibition (IC50) in assay [1] was 35 nM; in assay [2], under 10 nM.

For the compound `C[C@@H](C[C@H]1CC[C@]2(CC1)OC(=O)NN=C2c1ccc(F)cc1Br)NC(=O)c1cc(Cl)no1` [Example 37], the IC50 in assay [1] and in assay [2] was under 10 nM throughout.

Regarding `C[C@@H](CN1CCC2(CC1)OC(=O)NN=C2c1cc(C#N)ccc1Br)NC(=O)C[C@@H](O)C(F)(F)F` [Example 2-002], the 50% inhibitory concentration (IC50) came to 1250 nM in assay [1] and 1860 nM in assay [2].

`Cc1cc(C(=O)N[C@@H](C)C[C@H]2CC[C@]3(CC2)OC(=O)NN=C3c2ccc(C#N)cc2C)[nH]n1` [Example 153]: the concentration for half-maximal inhibition (IC50) came to 27 nM in assay [1] and 28 nM in assay [2].

For `CNC(=O)C(=O)N[C@@H](C)C[C@H]1CC[C@]2(CC1)OC(=O)NN=C2c1cc(C(C)(C)O)ccc1Br` [Example 2-026], the IC50 is 12 nM in assay [1] and under 10 nM in assay [2].

Turning to `C[C@@H](C[C@H]1CC[C@]2(CC1)OC(=O)NN=C2c1ccc(C#N)cc1Br)NC(=O)c1cc(C2CC2)n[nH]1` [Example 2-072], the 50% inhibitory concentration (IC50) in assay [1] came to 14 nM; in assay [2] it was 24 nM.

Consider `CNC(=O)C(=O)N[C@@H](C)CN1CCC2(CC1)OC(=O)NN=C2c1cccn2nccc12` [Example 2-039], for which the figures for the concentration for half-maximal inhibition (IC50) in assay [1] and in assay [2] were 153 nM and 264 nM, respectively.

Turning to `C[C@@H](CN1CCC2(CC1)OC(=O)NN=C2c1ccc(F)cc1Cl)NC(=O)c1ncn[nH]1` [Example 95], the IC50 amounted to 8060 nM in assay [1] and 6160 nM in assay [2].

With `CNC(=O)C(=O)N[C@@H](C)C[C@H]1CC[C@]2(CC1)OC(=O)NN=C2c1cnc(N2CCC2)cc1C` [Example 159], the IC50 is 28 nM in assay [1] and under 10 nM in assay [2].

`CNC(=O)C(=O)N[C@@H](C)C[C@H]1CC[C@]2(CC1)OC(=O)NN=C2c1cc(C(=O)N2CCC(F)(F)C2)ccc1Br` [Example 2-056]: the IC50 in assay [1] is 17 nM; in assay [2] it was under 10 nM.

For the compound `CNC(=O)C(=O)N[C@@H](C)C[C@H]1CC[C@]2(CC1)OC(=O)NN=C2c1ccc(Br)cc1` [Example 23], the results for the IC50 in assay [1] and in assay [2] were 39 nM and 51 nM, respectively.

For the compound `Cc1cc(C(=O)N[C@@H](C)CN2CC[C@]3(C[C@@H]2C)OC(=O)NN=C3c2ccc(C#N)cc2Cl)[nH]n1` [Example 281], the IC50 in assay [1] was determined as 169 nM; in assay [2], 232 nM.

Take `C[C@@H](C[C@H]1CC[C@]2(CC1)OC(=O)NN=C2c1ccc(F)cc1Br)NC(=O)c1cc(C(F)(F)F)n[nH]1` [Example 72]: the half-maximal inhibitory concentration (IC50) amounted to 34 nM in assay [1] and 24 nM in assay [2].

Turning to `CNC(=O)C(=O)N[C@@H](C)CN1CCC2(CC1)OC(=O)NN=C2c1cc(C(=O)NC)ccc1Br` [Example 2-037], the IC50 was 43 nM in assay [1] and 13 nM in assay [2].

Turning to `C[C@@H](C[C@H]1CC[C@]2(CC1)OC(=O)NN=C2c1ccc(F)cc1Br)NC(=O)C1CC1c1ccccc1` (single isomer, unassigned) [Example 39], the values for the IC50 in assay [1] and in assay [2] were 93 nM and 24 nM, respectively.

On to `Cc1cc(C(=O)N[C@@H](C)C[C@H]2CC[C@]3(CC2)OC(=O)NN=C3c2cnc(N3C[C@H]4C[C@@H]3CO4)cc2C)[nH]n1` [Example 249], for which the concentration for half-maximal inhibition (IC50) in assay [1] was 25 nM; in assay [2] it was under 10 nM.

In the case of `CNC(=O)C(=O)N[C@@H](C)CN1CCC2(CC1)OC(=O)NN=C2c1ccc(F)cc1Br` [Example 179, (S)—N^1-(1-(5-(2-bromo-4-fluorophenyl)-2-oxo-1-oxa-3,4,9-triazaspiro[5.5]undec-4-en-9-yl)propan-2-yl)-N^2-methyloxamide], the IC50 in assay [1] was 25 nM; in assay [2], under 10 nM.

For `Cc1cc(C(=O)N[C@@H](C)C[C@H]2CC[C@]3(CC2)OC(=O)NN=C3c2cnc(N3CCC(F)(F)C3)cc2C)[nH]n1` [Example 238], the IC50 in assay [1] was 12 nM; in assay [2] it was under 10 nM.

As for `CNC(=O)C(=O)N[C@@H](C)C[C@H]1CC[C@]2(CC1)OC(=O)NN=C2c1cnc(C(N)=O)cc1C` [Example 187], the 50% inhibitory concentration (IC50) in assay [1] worked out at 222 nM; in assay [2], 455 nM.

On to `Cc1cccnc1C1=NNC(=O)O[C@]12CC[C@@H](C[C@H](C)NC(=O)c1cc3ccccc3o1)CC2` [Example 149], for which the 50% inhibitory concentration (IC50) in assay [1] was 12 nM; in assay [2], under 10 nM.

Take `C[C@@H](C[C@H]1CC[C@]2(CC1)OC(=O)NN=C2c1cc(Cl)ccc1Cl)NC(=O)c1cn2ccccc2n1` [Example 324]: the IC50 in assay [1] is 20 nM; in assay [2], 22 nM.

For `C[C@@H](C[C@H]1CC[C@]2(CC1)OC(=O)NN=C2c1ccc(F)cc1Br)NC(=O)N1CCC2(CC2)C1` [Example 282], the results for the IC50 in assay [1] and in assay [2] were 97 nM and 146 nM, respectively.

With `COc1cc(C)c(C2=NNC(=O)O[C@]23CC[C@@H](C[C@H](C)NC(=O)C(=O)NC2CC2)CC3)cn1` [Example 220], the IC50 in assay [1] turned out to be 42 nM; in assay [2], 33 nM.

With `C[C@H](NC(=O)c1cnn(C)c1)[C@H](C)[C@H]1CC[C@]2(CC1)OC(=O)NN=C2c1cc(C#N)ccc1Br` [Example 339], the results for the IC50 in assay [1] and in assay [2] were 39 nM and 10 nM, respectively.

Take `CNC(=O)C(=O)N[C@@H](C)C[C@H]1CC[C@]2(CC1)OC(=O)NN=C2c1ccccc1S(C)(=O)=O` [Example 75]: the IC50 was found to be 1630 nM in assay [1] and 1990 nM in assay [2].

As to `CNC(=O)C(=O)N[C@@H](C)C[C@]1(C#N)CC[C@@]2(CC1)OC(=O)NN=C2c1cccc(C(F)(F)F)c1Br` [Example 2-076], the concentration for half-maximal inhibition (IC50) in assay [1] is 11 nM; in assay [2], under 10 nM.

Take `CNC(=O)C(=O)N[C@@H](C)CN1CCC2(CC1)OC(=O)NN=C2c1ccc(C#N)cc1Cl` [Example 168]: the IC50 in assay [1] stood at 56 nM; in assay [2], 35 nM.

As to `C[C@@H](CN1CCC2(CC1)OC(=O)NN=C2c1ccc(F)cc1Br)NC(=O)C(=O)NC12CC(C1)C2` [Example 202], the 50% inhibitory concentration (IC50) came to 832 nM in assay [1] and 1250 nM in assay [2].

With `COc1cc(C)c(C2=NNC(=O)O[C@]23CC[C@@H](C[C@H](C)NC(=O)N2CCc4ncccc4C2)CC3)cn1` [Example 264], the IC50 was 36 nM in assay [1] and under 10 nM in assay [2].

For the compound `CNC(=O)C(=O)N[C@@H](C)C[C@H]1CC[C@]2(CC1)OC(=O)NN=C2c1ccc(F)cc1C` [Example 55], the IC50 in assay [1] was 15 nM; in assay [2] it was under 10 nM.

Take `CNC(=O)C(=O)N[C@@H](C)C[C@H]1CC[C@]2(CC1)OC(=O)NN=C2c1cc(C(=O)N(C)C)ccc1Br` [Example 2-036]: the IC50 in assay [1] is 17 nM; in assay [2], under 10 nM.

As for `CNC(=O)C(=O)N[C@@H](C)C[C@H]1CC[C@]2(CC1)OC(=O)NN=C2c1cnc(C)cc1C` [Example 173], the IC50 came to 29 nM in assay [1] and 10 nM in assay [2].

Regarding `CNC(=O)C(=O)N[C@@H](C)C[C@H]1CC[C@]2(CC1)OC(=O)NN=C2c1ccc(-c2ccccc2)cc1-c1ccccc1` [Example 73], the IC50 was determined as 23 nM in assay [1] and 15 nM in assay [2].

Regarding `Cc1cc(C(=O)N[C@@H](C)C[C@H]2CC[C@]3(CC2)OC(=O)NN=C3c2cc(OCC(F)(F)F)ccc2Br)[nH]n1` [Example 298], the IC50 is 15 nM in assay [1] and under 10 nM in assay [2].

As to `CNC(=O)C(=O)N[C@@H](C)C[C@H]1CC[C@]2(CC1)OC(=O)NN=C2c1cnc(C2CC2)cc1C` [Example 171], the IC50 in assay [1] is 13 nM; in assay [2], under 10 nM.

For the compound `Cc1cc(C(=O)N[C@@H](C)CN2C[C@H]3CC[C@@H](C2)[C@@]32OC(=O)NN=C2c2ccc(F)cc2Cl)[nH]n1` [Example 197], the half-maximal inhibitory concentration (IC50) was 26 nM in assay [1] and under 10 nM in assay [2].

Consider `Cc1cc(C(=O)N[C@@H](C)CN2CCC3(CC2)OC(=O)NN=C3c2ccc(F)cc2Cl)no1` [Example 98], for which the figures for the 50% inhibitory concentration (IC50) in assay [1] and in assay [2] were 57 nM and 78 nM, respectively.

In the case of `C[C@@H](C[C@H]1CC[C@]2(CC1)OC(=O)NN=C2c1ccc(F)cc1Cl)NC(=O)c1cc2ccccc2o1` [Example 46], the IC50 in assay [1] was 12 nM; in assay [2], under 10 nM.

`C[C@@H](C[C@H]1CC[C@]2(CC1)OC(=O)NN=C2c1ccc(OC(F)F)cc1Br)NC(=O)c1cc(Cl)n[nH]1` [Example 144]: the results for the 50% inhibitory concentration (IC50) in assay [1] and in assay [2] were 11 nM and under 10 nM, respectively.

For the compound `C[C@@H](C[C@H]1CC[C@]2(CC1)OC(=O)NN=C2c1cccc(C#N)c1Br)NC(=O)c1cnn(C)c1` [Example 318], the IC50 in assay [1] was 37 nM; in assay [2] it was 41 nM.

`CC(C)c1cc(F)ccc1C1=NNC(=O)O[C@]12CC[C@@H](C[C@H](C)NC(=O)c1cc(Cl)no1)CC2` [Example 134]: the half-maximal inhibitory concentration (IC50) is 21 nM in assay [1] and 30 nM in assay [2].

As for `Cc1cc(C(=O)N[C@@H](C)CN2CCC3(CC2)OC(=O)NN=C3c2ccc(Cl)cc2C)[nH]n1` [Example 217], the IC50 in assay [1] is 17 nM; in assay [2], under 10 nM.

Take `CNC(=O)C(=O)N[C@@H](C)C[C@H]1CC[C@]2(CC1)OC(=O)NN=C2c1cc(Cl)ccc1Cl` [Example 314]: the concentration for half-maximal inhibition (IC50) in assay [1] and in assay [2] was under 10 nM in each case.

Consider `C[C@@H](C[C@H]1CC[C@]2(CC1)OC(=O)NN=C2c1cc(C(C)(C)O)ccc1Br)NC(=O)C(=O)NC1CC1` [Example 2-045], for which the values for the half-maximal inhibitory concentration (IC50) in assay [1] and in assay [2] were 18 nM and under 10 nM, respectively.
